Assay results taken from ChEMBL document CHEMBL1144057, “Guiaflavine, a new bisindole quaternary alkaloid from the stem bark of Strychnos guianensis” (J Nat Prod, 1999).

Test system: Mus musculus
Assay: Toxicity in ip dosed NMRI mouse
Type: organism-based
Conditions: in vivo

Compound `CCc1c[n+]2c(cc1C1=CN3c4ccccc4[C@@]45CC[N+]6(C)CC7=CCO[C@@H]1[C@@H]([C@H]34)[C@H]7C[C@@H]56)-c1[nH]c3cccc(OC)c3c1CC2.[Cl-].[Cl-]` (stereo partly specified) [GUIAFLAVINE] has an LD100 of 100 mg/kg.
